According to article PMC9490236, “Accurate de novo design of membrane-traversing macrocycles” (Cell, 2022):
Where a SMILES comes first, the peptide text is derived from it. [ ]: non-standard residue; d: D form. NMeF = CN[C@@H](Cc1ccccc1)C(=O)O; dNMeF = CN[C@H](Cc1ccccc1)C(=O)O; NMeL = CN[C@@H](CC(C)C)C(=O)O; dNMeL = CN[C@H](CC(C)C)C(=O)O; NMeV = CN[C@H](C(=O)O)C(C)C; NMeA = CN[C@@H](C)C(=O)O; dNMeA = CN[C@H](C)C(=O)O; Sar = CNCC(=O)O

Legend:
Caco-2 cells = assay: Caco-2 permeability assay (apical to basolateral); type: in vitro ADME, human; design: Caco_R1 / Caco_R3: unit not given here
Method: Human colon adenocarcinoma-derived Caco-2 cell line was used as a model system to investigate the intestinal epithelial permeability of our designs. Caco-2 cells were propagated in T125 flasks (Corning, Merck) using Dulbecco’s modified Eagle medium supplemented with 10% (v/v) fetal bovine serum, 1% (v/v) nonessential amino acids, and 1% (v/v) penicillin-streptomycin (Gibco, Thermo Fisher Scientific) at 37°C in an atmosphere of 5% CO2. Cells were subcultured when they reached 80% confluence.
The permeability of designed peptides was evaluated using an accelerated 6-day Caco-2 permeability assay as described previously ([Sevin et al., 2013]). In brief, cells were seeded into the 12-well Transwell plates with 0.4 μm polyester membrane inserts (Corning, Merck) to give 4.0 × 10^5 cells/well. The complete assay medium contained Dulbecco’s modified Eagle medium supplemented with 10% (v/v) fetal bovine serum, 1% (v/v) nonessential amino acids, and 0.4 μg/mL puromycin. The medium in plates was renewed every second day. The inserts received 0.75 mL of assay medium in the upper compartment (apical chamber) and 1.5 mL in the bottom compartment (basolateral chamber) individually. After 6-day incubation or until the cells formed monolayers, the medium in the apical and basolateral chamber was replaced with peptide solutions at 50 μM or Hanks' Balanced Salt Solution (HBSS), separately. The plates were incubated for 90 min at 37°C on an orbital shaker (60 rpm). The peptide concentration of solutions in the apical and basolateral compartments was subsequently quantified using LC-MS (Qstar Elite, AB Sciex Australia) to evaluate the transmembrane flux of peptides in the apical-to-basolateral direction. Membrane integrity of the Caco-2 cell monolayer was validated using trans-epithelial electrical resistance (TEER) measurements before and after the assays. Atenolol and quinidine were included as negative and positive controls in all assays.

[1] = PAMPA
in vitro = settings: PAMPA, PAMPA_Papp_Avg

Structure (SMILES) | PAMPA_R1 [1] | PAMPA_R3 [1] | Papp (in vitro) | other results
CC[C@@H](C)[C@H]1NC(=O)[C@H](CC(C)C)NC(=O)[C@@H](CC(C)C)NC(=O)[C@H](C(C)C)NC(=O)[C@@H](Cc2ccccc2)N(C)C(=O)[C@@H]2CCCN2C(=O)[C@@H](CC(C)C)NC(=O)[C@H](CC(C)C)NC(=O)[C@H]2CCCN2C1=O (single isomer, unassigned) [Design D9.4.p2, LEU DILE DPRO LEU DLEU PRO *DPHE VAL DLEU] | – | – | – | Caco_R1 (Caco-2 cells; Caco-2 Papp, replicate 1): 3.27; Caco_R3 (Caco-2 cells; Caco-2 Papp, replicate 3): 2.03
CC[C@H](C)[C@@H]1NC(=O)[C@H](Cc2ccccc2)N(C)C(=O)[C@H](CC(C)C)N(C)C(=O)[C@@H](C(C)C)NC(=O)[C@@H](C)NC(=O)[C@@H]2CCCN2C(=O)[C@@H](CC(C)C)NC(=O)[C@@H]2CCCN2C(=O)[C@H](C)NC1=O (single isomer, unassigned) [Design D9.6.p2] | – | – | – | Caco_R1 (Caco-2 cells; Caco-2 Papp, replicate 1): 3.08; Caco_R3 (Caco-2 cells; Caco-2 Papp, replicate 3): 7.44
CC(C)C[C@@H]1NC(=O)[C@@H]2CCCN2C(=O)[C@@H](Cc2ccccc2)NC(=O)[C@H](C)N(C)C(=O)[C@H](CC(C)C)NC(=O)[C@H](CC(C)C)N(C)C(=O)[C@@H](C)NC(=O)[C@@H](CC(C)C)NC(=O)[C@@H]2CCCN2C(=O)[C@@H](Cc2ccccc2)NC1=O (single isomer, unassigned) [Design D10.2.p2, LEU DPHE PRO DLEU DALA *LEU LEU *ALA DPHE PRO] | 4.31E-07 | 4.68E-07 | – | PAMPA_Papp_Avg [1]: 3.60E-07; Caco_Papp_Average (Caco-2 cells; Caco-2): 0; Caco_R1 (Caco-2 cells; Caco-2): 0; Caco_R3 (Caco-2 cells; Caco-2): 0
CC[C@H](C)[C@@H]1NC(=O)[C@@H](Cc2ccccc2)NC(=O)[C@@H](C)NC(=O)[C@@H](C(C)C)NC(=O)[C@H](CCSC)NC(=O)[C@@H]2CCCN2C(=O)[C@H]2CCCN2C(=O)[C@@H]2CCCN2C(=O)[C@@H](C)N(C)C(=O)[C@@H](CC(C)C)N(C)C1=O [Design D10.45, DVAL DALA DPHE ILE *DLEU *DALA PRO DPRO PRO MET] (cyclo(M[dV][dA][dF]I[dNMeL][dNMeA]P[dP]P)) | 5.38E-07 | 3.72E-07 | 0.487 ×10⁻⁶ cm/s | –
CC[C@@H](C)[C@H]1NC(=O)[C@@H](CC(C)C)NC(=O)[C@@H](CC(C)C)NC(=O)[C@H]2CCCN2C(=O)[C@H](CC(C)C)N(C)C(=O)[C@@H](C)N(C)C(=O)[C@@H]2CCCN2C(=O)[C@@H]([C@H](C)CC)NC(=O)[C@@H](C(C)C)NC(=O)[C@@H]2CCCN2C1=O [Design D10.46, PRO DVAL DILE PRO *DALA *LEU DPRO DLEU DLEU DILE] (cyclo([NMeL][dP][dL][dL][dI]P[dV][dI]P[dNMeA])) | 8.07E-07 | 6.41E-07 | 0.684 ×10⁻⁶ cm/s | –
CC(C)C[C@@H]1NC(=O)[C@@H](Cc2ccccc2)N(C)C(=O)[C@H](C(C)C)NC(=O)[C@H](C)NC(=O)[C@@H](C)NC(=O)[C@@H](Cc2ccccc2)N(C)C(=O)[C@@H]2CCCN2C(=O)[C@H](C(C)C)NC(=O)[C@@H]2CCCN2C(=O)[C@@H](C)NC1=O [Design D10.48, DALA PRO VAL PRO *DPHE DALA ALA VAL *DPHE LEU] (cyclo(AV[dNMeF]L[dA]PVP[dNMeF][dA])) | 3.54E-07 | 4.59E-07 | 0.405 ×10⁻⁶ cm/s | –
CC(C)C[C@@H]1NC(=O)[C@H](C)NC(=O)[C@@H]2CCCN2C(=O)[C@H]2CCCN2C(=O)[C@H](Cc2ccccc2)NC(=O)[C@H]2CCCN2C(=O)[C@@H](Cc2ccccc2)N(C)C(=O)[C@@H]2CCCN2C(=O)[C@@H](C)NC(=O)[C@H](CC(C)C)NC1=O [Design D10.49, DALA PRO *DPHE DPRO PHE DPRO PRO ALA LEU LEU] (cyclo(ALL[dA]P[dNMeF][dP]F[dP]P)) | 2.36E-07 | 1.35E-07 | 0.17 ×10⁻⁶ cm/s | –
CC[C@@H](C)[C@H]1NC(=O)[C@H](Cc2ccccc2)N(C)C(=O)[C@@H](CC(C)C)N(C)C(=O)[C@H](C(C)C)NC(=O)[C@H](C)NC(=O)[C@@H]2CCCN2C(=O)[C@H](CC(C)C)N(C)C(=O)[C@@H](Cc2ccccc2)N(C)C(=O)[C@H](C)N(C)C(=O)[C@H](C)N(C)C1=O [Design D10.56, *DPHE *LEU PRO ALA VAL *DLEU *PHE DILE *ALA *ALA] (cyclo(AV[dNMeL][NMeF][dI][NMeA][NMeA][dNMeF][NMeL]P)) | 9.15E-06 | 8.95E-06 | 9.02 ×10⁻⁶ cm/s | –
CC(C)C[C@@H]1NC(=O)[C@@H](CC(C)C)N(C)C(=O)[C@@H]2CCCN2C(=O)[C@H](CC(C)C)N(C)C(=O)[C@@H](C)NC(=O)[C@@H](CC(C)C)N(C)C(=O)[C@@H]2CCCN2C(=O)CN(C)C(=O)[C@H](CC(C)C)N(C)C(=O)[C@H](Cc2ccccc2)NC1=O [Design D10.57, *LEU *GLY PRO *DLEU DALA *LEU PRO *DLEU LEU PHE] (cyclo(F[NMeL][Sar]P[dNMeL][dA][NMeL]P[dNMeL]L)) | 2.94E-06 | 3.42E-06 | 3.05 ×10⁻⁶ cm/s | –
C[C@H]1NC(=O)[C@@H](Cc2ccccc2)NC(=O)[C@H](Cc2ccccc2)N(C)C(=O)[C@H](Cc2ccccc2)N(C)C(=O)[C@@H](Cc2ccccc2)NC(=O)[C@H]2CCCN2C(=O)CNC(=O)[C@@H](C)NC(=O)[C@@H]2CCCN2C(=O)[C@@H](Cc2ccccc2)NC1=O [Design D10.62, DALA GLY DPRO DPHE *PHE *PHE DPHE DALA DPHE PRO] (cyclo(G[dP][dF][NMeF][NMeF][dF][dA][dF]P[dA])) | 4.48E-06 | 4.48E-06 | 4.23 ×10⁻⁶ cm/s | –
CC[C@@H](C)[C@H]1NC(=O)[C@H](C)NC(=O)[C@@H](CC(C)C)N(C)C(=O)[C@H](CC(C)C)N(C)C(=O)[C@H](C(C)C)NC(=O)[C@@H]2CCCN2C(=O)[C@@H](CC(C)C)N(C)C(=O)[C@@H](C)N(C)C(=O)[C@@H](Cc2ccccc2)NC(=O)[C@@H]2CCCN2C(=O)[C@H]2CCCN2C1=O [Design D11.6, VAL *LEU *DLEU ALA DILE DPRO PRO DPHE *DALA *DLEU PRO] (cyclo([dF][dNMeA][dNMeL]PV[NMeL][dNMeL]A[dI][dP]P)) | 1.24E-06 | 7.58E-07 | 0.949 ×10⁻⁶ cm/s | –
CC(C)C[C@@H]1NC(=O)[C@@H](C)NC(=O)[C@H]2CCCN2C(=O)[C@@H]2CCCN2C(=O)[C@@H](C(C)C)NC(=O)[C@@H](CC(C)C)N(C)C(=O)[C@H]2CCCN2C(=O)[C@H]2CCCN2C(=O)[C@@H](C)N(C)C(=O)[C@H](CC(C)C)N(C)C(=O)[C@@H](Cc2ccccc2)NC1=O [Design D11.16, LEU DPHE *LEU *DALA DPRO DPRO *DLEU DVAL PRO DPRO DALA] (cyclo(L[dF][NMeL][dNMeA][dP][dP][dNMeL][dV]P[dP][dA])) | 3.70E-07 | 4.55E-07 | 0.43 ×10⁻⁶ cm/s | –
CC[C@H](C)[C@@H]1NC(=O)[C@H](C(C)C)NC(=O)[C@@H](CC(C)C)N(C)C(=O)[C@H](Cc2ccccc2)NC(=O)[C@@H](CC(C)C)N(C)C(=O)[C@@H](C)N(C)C(=O)[C@H]2CCCN2C(=O)[C@@H]2CCCN2C(=O)[C@H](CC(C)C)NC(=O)[C@@H](C)N(C)C(=O)[C@@H]2CCCN2C1=O [Design D11.20, PRO *DALA LEU PRO DPRO *DALA *DLEU PHE *DLEU VAL ILE] (cyclo(F[dNMeL]VIP[dNMeA]LP[dP][dNMeA][dNMeL])) | 1.21E-06 | 9.60E-07 | 1.29 ×10⁻⁶ cm/s | –
CC[C@H](C)[C@@H]1NC(=O)[C@@H]2CCCN2C(=O)[C@H]2CCCN2C(=O)[C@@H](Cc2ccccc2)NC(=O)[C@@H](CC(C)C)N(C)C(=O)[C@H](C(C)C)NC(=O)[C@@H](CC(C)C)NC(=O)[C@@H]2CCCN2C(=O)[C@H]2CCCN2C(=O)[C@@H](C)N(C)C(=O)[C@H](C(C)C)N(C)C1=O [Design D11.21, PRO ILE *VAL *DALA DPRO PRO DLEU VAL *DLEU DPHE DPRO] (cyclo(I[NMeV][dNMeA][dP]P[dL]V[dNMeL][dF][dP]P)) | 2.47E-07 | 2.17E-07 | 0.24 ×10⁻⁶ cm/s | –
CC(C)C[C@H]1NC(=O)[C@@H](C)NC(=O)[C@@H](C)NC(=O)[C@H]2CCCN2C(=O)[C@@H]2CCCN2C(=O)[C@H]2CCCN2C(=O)[C@@H](C)NC(=O)[C@@H](Cc2ccccc2)N(C)C(=O)[C@H]2CCCN2C(=O)[C@@H](CC(C)C)NC(=O)[C@@H](CC(C)C)NC1=O [Design D11.25, DLEU DPRO *DPHE DALA DPRO PRO DPRO DALA DALA DLEU DLEU] (cyclo([dP][dA][dA][dL][dL][dL][dP][dNMeF][dA][dP]P)) | 3.92E-07 | 3.97E-07 | 0.405 ×10⁻⁶ cm/s | –
CC[C@H](C)[C@@H]1NC(=O)[C@H](C(C)C)N(C)C(=O)[C@H]2CCCN2C(=O)[C@H]([C@@H](C)CC)NC(=O)[C@@H](CC(C)C)N(C)C(=O)[C@@H](C)NC(=O)[C@@H]2CCCN2C(=O)[C@H]2CCCN2C(=O)[C@H](CC(C)C)NC(=O)[C@@H](Cc2ccccc2)NC(=O)[C@H](CC(C)C)NC(=O)[C@H]2CCCN2C1=O [Design D12.3, DPRO *VAL ILE DPRO LEU DPHE LEU DPRO PRO DALA *DLEU ILE] (cyclo([dA][dNMeL]I[dP][NMeV]I[dP]L[dF]L[dP]P)) | 7.65E-07 | 9.01E-07 | 0.789 ×10⁻⁶ cm/s | –
